Laboratory results published in patent publication US9302999B2, “Substituted triazoles as herbicides” (E. I. DU PONT DE NEMOURS AND COMPANY, priority 2012, dated 2016).

Columns and labels:
Format in all cases: in vivo
soybean (Glycine max) = assay: Test E pre-/postemergence: soybean; conditions: scale 0 to 100
Text: (§1) Seeds of plant species selected from corn (Zea mays), soybean (Glycine max), velvetleaf (Abutilon theophrasti), lambsquarters (Chenopodium album), poinsettia, wild (wild poinsettia, Euphorbia heterophylla), pigweed, palmer (palmer pigweed, Amaranthus palmeri), waterhemp (common waterhemp, Amaranthus rudis), smartweed (ladysthumb smartweed, Polygonum persicaria), surinam grass (Brachiaria decumbens), crabgrass, large (large crabgrass, Digitaria sanguinalis), crabgrass, Brazil (Brazilian crabgrass, Digitaria horizontalis), panicum, fall (fall panicum, Panicum dichotomiflorum), foxtail, giant (giant foxtail, Setaria faberii), foxtail, green (green foxtail, Setaria viridis), goosegrass (Eleusine indica), johnsongrass (Sorghum halepense), ragweed (common ragweed, Ambrosia elation), barnyardgrass (Echinochloa crus-galli), sandbur (southern sandbur, Cenchrus echinatus), arrowleaf sida (Sida rhombifolia), ryegrass, Italian (Italian ryegrass, Lolium multiflorum), dayflower, (VA) (Virginia dayflower, Commelina virginica), field bindweed (Convolvulus arvensis), cocklebur (common cocklebur, Xanthium strumarium), morningglory (Ipomoea coccinea), nightshade (eastern black nightshade, Solanum ptycanthum), kochia (Kochia scoparia), nutsedge, yellow (yellow nutsedge, Cyperus esculentus) and beggarticks (hairy beggarticks, Bidens pilosa) were planted into a silt loam soil and treated preemergence with test chemicals formulated in a non-phytotoxic solvent mixture which included a surfactant. At the same time, plants selected from these crop and weed species were planted in pots containing a growing medium comprising spaghnum peat moss, vermiculite, wetting agent and starter nutrients and treated with postemergence applications of some of the test chemicals formulated in the same manner. Plants ranged in height from 2 to 18 cm for postemergence treatments (1- to 4-leaf stage).
(§2) Treated plants and controls were maintained in a greenhouse for 14 to 21 days, after which time all species were compared to controls and visually evaluated. Plant response ratings, summarized in Table E, are based on a scale of 0 to 100 where 0 is no effect and 100 is complete control. A dash (-) response means no test result.

[1] = system: velvetleaf (Abutilon theophrasti); assay: Test E pre-/postemergence: velvetleaf; conditions: Preemergence, scale 0 to 100
How it was run: (§3)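 Visual injury scored 0–100 (0 no effect, 100 complete control) against controls after 14 to 21 days in greenhouse. Compounds formulated in surfactant-containing non-phytotoxic solvent, applied pre-emergence to seeded silt loam or post-emergence to 1- to 4-leaf plants in peat-based medium.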

[2] = system: surinam grass (Brachiaria decumbens); assay: Test E pre-/postemergence: surinam grass; conditions: Preemergence, scale 0 to 100
Text: as §1, §2

[3] = system: crabgrass, large (large crabgrass, Digitaria sanguinalis); assay: Test E pre-/postemergence: crabgrass, large; conditions: Preemergence, scale 0 to 100
Text: as §1, §2

[4] = system: foxtail, green (green foxtail, Setaria viridis); assay: Test E pre-/postemergence: foxtail, green; conditions: Preemergence, scale 0 to 100
How it was run: as §3

[5] = system: goosegrass (Eleusine indica); assay: Test E pre-/postemergence: goosegrass; conditions: Preemergence, scale 0 to 100
Text: as §1, §2

[6] = system: johnsongrass (Sorghum halepense); assay: Test E pre-/postemergence: johnsongrass; conditions: Preemergence, scale 0 to 100
How it was run: as §3

[7] = system: ragweed (common ragweed, Ambrosia elation); assay: Test E pre-/postemergence: ragweed; conditions: Preemergence, scale 0 to 100
Text: as §1, §2

[8] = system: ryegrass, Italian (Italian ryegrass, Lolium multiflorum); assay: Test E pre-/postemergence: ryegrass, Italian; conditions: scale 0 to 100
How it was run: as §3

[9] = system: field bindweed (Convolvulus arvensis); assay: Test E pre-/postemergence: field bindweed; conditions: scale 0 to 100
Text: as §1, §2

Cc1nn(-c2ccc(C(F)(F)F)cc2)nc1Oc1ccnc(C(F)(F)F)c1 [Compound 120]
Plant response rating: Soybean (soybean (Glycine max); Postemergence, 8 g ai/ha): 15
Plant response rating: Soybean (soybean (Glycine max); Postemergence, 16 g ai/ha): 20
Plant response rating: Soybean (soybean (Glycine max); Postemergence, 31 g ai/ha): 30
Plant response rating: Soybean (soybean (Glycine max); Postemergence, 62 g ai/ha): 40
Plant response rating: Soybean (soybean (Glycine max); Postemergence, 125 g ai/ha): 50
Plant response rating: Soybean (soybean (Glycine max); Preemergence, 16 g ai/ha): 0
Plant response rating: Soybean (soybean (Glycine max); Preemergence, 31 g ai/ha): 25
Plant response rating: Soybean (soybean (Glycine max); Preemergence, 62 g ai/ha): 35
Plant response rating: Soybean (soybean (Glycine max); Preemergence, 125 g ai/ha): 35
Plant response rating: Soybean (soybean (Glycine max); Preemergence, 250 g ai/ha): 35
Plant response rating: Velvetleaf ([1]; 16 g ai/ha): 15
Plant response rating: Velvetleaf ([1]; 31 g ai/ha): 30
Plant response rating: Velvetleaf ([1]; 62 g ai/ha): 35
Plant response rating: Velvetleaf ([1]; 125 g ai/ha): 50
Plant response rating: Velvetleaf ([1]; 250 g ai/ha): 65
Plant response rating: Surinam Grass ([2]; 16 g ai/ha): 0
Plant response rating: Surinam Grass ([2]; 31 g ai/ha): 35
Plant response rating: Surinam Grass ([2]; 62 g ai/ha): 35
Plant response rating: Surinam Grass ([2]; 125 g ai/ha): 90
Plant response rating: Surinam Grass ([2]; 250 g ai/ha): 100
Plant response rating: Crabgrass, Large ([3]; 16 g ai/ha): 75
Plant response rating: Crabgrass, Large ([3]; 31 g ai/ha): 95
Plant response rating: Crabgrass, Large ([3]; 62 g ai/ha): 98
Plant response rating: Crabgrass, Large ([3]; 125 g ai/ha): 100
Plant response rating: Crabgrass, Large ([3]; 250 g ai/ha): 100
Plant response rating: Foxtail, Green ([4]; 16 g ai/ha): 15
Plant response rating: Foxtail, Green ([4]; 31 g ai/ha): 85
Plant response rating: Foxtail, Green ([4]; 62 g ai/ha): 100
Plant response rating: Foxtail, Green ([4]; 125 g ai/ha): 100
Plant response rating: Foxtail, Green ([4]; 250 g ai/ha): 100
Plant response rating: Goosegrass ([5]; 16 g ai/ha): 95
Plant response rating: Goosegrass ([5]; 31 g ai/ha): 100
Plant response rating: Goosegrass ([5]; 62 g ai/ha): 100
Plant response rating: Goosegrass ([5]; 125 g ai/ha): 100
Plant response rating: Goosegrass ([5]; 250 g ai/ha): 100
Plant response rating: Johnsongrass ([6]; 16 g ai/ha): 15
Plant response rating: Johnsongrass ([6]; 31 g ai/ha): 15
Plant response rating: Johnsongrass ([6]; 62 g ai/ha): 15
Plant response rating: Johnsongrass ([6]; 125 g ai/ha): 35
Plant response rating: Johnsongrass ([6]; 250 g ai/ha): 65
Plant response rating: Ragweed ([7]; 16 g ai/ha): 0
Plant response rating: Ragweed ([7]; 31 g ai/ha): 0
Plant response rating: Ragweed ([7]; 62 g ai/ha): 30
Plant response rating: Ragweed ([7]; 125 g ai/ha): 35
Plant response rating: Ragweed ([7]; 250 g ai/ha): 80
Plant response rating: Ryegrass, Italian ([8]; Postemergence, 8 g ai/ha): 0
Plant response rating: Ryegrass, Italian ([8]; Postemergence, 16 g ai/ha): 10
Plant response rating: Ryegrass, Italian ([8]; Postemergence, 31 g ai/ha): 15
Plant response rating: Ryegrass, Italian ([8]; Postemergence, 62 g ai/ha): 20
Plant response rating: Ryegrass, Italian ([8]; Postemergence, 125 g ai/ha): 35
Plant response rating: Ryegrass, Italian ([8]; Preemergence, 16 g ai/ha): 0
Plant response rating: Ryegrass, Italian ([8]; Preemergence, 31 g ai/ha): 35
Plant response rating: Ryegrass, Italian ([8]; Preemergence, 62 g ai/ha): 35
Plant response rating: Ryegrass, Italian ([8]; Preemergence, 125 g ai/ha): 90
Plant response rating: Ryegrass, Italian ([8]; Preemergence, 250 g ai/ha): 98
Plant response rating: Field Bindweed ([9]; Postemergence, 16 g ai/ha): 20
Plant response rating: Field Bindweed ([9]; Postemergence, 31 g ai/ha): 30
Plant response rating: Field Bindweed ([9]; Postemergence, 62 g ai/ha): 35
Plant response rating: Field Bindweed ([9]; Postemergence, 125 g ai/ha): 35
Plant response rating: Field Bindweed ([9]; Preemergence, 16 g ai/ha): 0
Plant response rating: Field Bindweed ([9]; Preemergence, 31 g ai/ha): 10
Plant response rating: Field Bindweed ([9]; Preemergence, 62 g ai/ha): 20
Plant response rating: Field Bindweed ([9]; Preemergence, 125 g ai/ha): 40
Plant response rating: Field Bindweed ([9]; Preemergence, 250 g ai/ha): 98
